Values quoted from earlier work as cited in patent US8957218B2, “2-oxo-1-imidazolidinyl imidazothiadiazole derivatives” (UCB Pharma S.A., priority 2011, dated 2015).

Test system: epilepsy (seizure control)
Details: Gower A. J. et al., Eur. J. Pharmacol. (1992), 222, 193-203

CC[C@H](C(N)=O)N1CCCC1=O [(R)-α-ethyl-2-oxo-1-pyrrolidine acetamide]
activity in the treatment of epilepsy (seizure control): completely lacks activity
